These molecules were tested against Src (Homo sapiens, UniProt P12931) (assay: Src kinase inhibition (IC50)).
Chain of Src (P12931 whole entry, species assumed): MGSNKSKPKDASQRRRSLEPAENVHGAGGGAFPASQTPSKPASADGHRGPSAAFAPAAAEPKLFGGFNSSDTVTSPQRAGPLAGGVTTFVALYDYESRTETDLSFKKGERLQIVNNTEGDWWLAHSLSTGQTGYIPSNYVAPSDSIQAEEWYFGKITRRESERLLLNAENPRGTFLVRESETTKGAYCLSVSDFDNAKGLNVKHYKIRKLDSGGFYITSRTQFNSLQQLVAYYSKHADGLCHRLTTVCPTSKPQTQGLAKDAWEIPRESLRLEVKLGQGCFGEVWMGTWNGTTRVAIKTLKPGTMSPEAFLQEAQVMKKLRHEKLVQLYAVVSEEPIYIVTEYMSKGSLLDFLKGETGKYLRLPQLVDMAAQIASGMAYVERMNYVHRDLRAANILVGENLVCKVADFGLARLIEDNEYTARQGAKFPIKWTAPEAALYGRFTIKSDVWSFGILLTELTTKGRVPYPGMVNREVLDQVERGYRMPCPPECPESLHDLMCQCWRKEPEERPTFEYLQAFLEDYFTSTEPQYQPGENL
Assay type: biochemical
Excerpt: Other assays are known from the literature and could readily be performed by the person skilled in the art (see, for example, Dhanabal et al., Cancer Res. 59:189-197; Xin et al., J. Biol. Chem. 274:9116-9121; Sheu et al., Anticancer Res. 18:4435-4441; Ausprunk et al., Dev. Biol. 38:237-248; Gimbrone et al., J. Natl. Cancer Inst. 52:413-427; Nicosia et al., In Vitro 18:538-549).
For `CC(=O)N1CCc2[nH]c3nccc(Nc4c(Cl)ccc5c4OCO5)c3c2C1` [Example 15, 1-[4-(5-Chloro-benzo[1,3]dioxol-4-ylamino)-5,7,8,9-tetrahydro-dipyrido[2,3-b;3′,4′-d]pyrrol-6-yl]-ethanone], the IC50 was 11 to 100 nM.
With `O=C(c1ccccc1)N1CCc2[nH]c3nccc(Nc4c(Cl)ccc5c4OCO5)c3c2C1` [Example 67, [4-(5-Chloro-benzo[1,3]-dioxol-4-ylamino)-5,7,8,9-tetrahydro-dipyrido[2,3-b;3′,4′-d]pyrrol-6-yl]-phenyl-methanone] the IC50 was 101 to 1000 nM.
Work on `O=C(C1CC1)N1CCc2[nH]c3nccc(Nc4c(Cl)ccc5c4OCO5)c3c2C1` [Example 68, [4-(5-Chloro-benzo[1,3]-dioxol-4-ylamino)-5,7,8,9-tetrahydro-dipyrido[2,3-b;3′,4′-d]pyrrol-6-yl]-cyclopropyl-methanone] yielded an IC50 of 101 to 1000 nM.
`O=C(C1CCC1)N1CCc2[nH]c3nccc(Nc4c(Cl)ccc5c4OCO5)c3c2C1` [Example 69, [4-(5-Chloro-benzo[1,3]-dioxol-4-ylamino)-5,7,8,9-tetrahydro-dipyrido[2,3-b;3′,4′-d]pyrrol-6-yl]-cyclobutyl-methanone] was tested, and the IC50 was 101 to 1000 nM.
In the case of `O=C(C1CCCC1)N1CCc2[nH]c3nccc(Nc4c(Cl)ccc5c4OCO5)c3c2C1` [Example 70, [4-(5-Chloro-benzo[1,3]-dioxol-4-ylamino)-5,7,8,9-tetrahydro-dipyrido[2,3-b;3′,4′-d]pyrrol-6-yl]-cyclopentyl-methanone], the IC50 is reported as 101 to 1000 nM.
`O=C(C1CCCCC1)N1CCc2[nH]c3nccc(Nc4c(Cl)ccc5c4OCO5)c3c2C1` [Example 71, [4-(5-Chloro-benzo[1,3]-dioxol-4-ylamino)-5,7,8,9-tetrahydro-dipyrido[2,3-b;3′,4′-d]pyrrol-6-yl]-cyclohexyl-methanone] gave an IC50 of 101 to 1000 nM.
